Like-named read-outs stand apart in the source and are kept apart here.
What was measured:
Assay type in all cases: in vivo
[1] = test system: giant foxtail (Setaria faberii); assay: Test D pre-/postemergence plant response; settings: Setaria faberi; for pest or weed control at 125 g/ha: 125 g ai/ha
Method in brief: (§1)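 Test chemicals were formulated in a non-phytotoxic solvent mixture containing surfactant and applied either preemergence to seeds in loam–sand soil or postemergence to plants 2 to 18 cm tall (1- to 4-leaf stage). Response was rated visually against controls after 13 to 15 days, from 0 (none) to 100 (complete control).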

[2] = test system: barnyardgrass (Echinochloa crus-galli); assay: Test D pre-/postemergence plant response; settings: Echinochloa crus-galli; for pest or weed control at 16 g/ha: 16 g ai/ha; for pest or weed control at 31 g/ha: 31 g ai/ha; for pest or weed control at 62 g/ha: 62 g ai/ha; for pest or weed control at 125 g/ha: 125 g ai/ha
Method in brief: as §1

[3] = test system: Italian ryegrass (Lolium multiflorum); assay: Test D pre-/postemergence plant response; settings: Lolium multiflorum; for pest or weed control at 31 g/ha: 31 g ai/ha; for pest or weed control at 62 g/ha: 62 g ai/ha; for pest or weed control at 125 g/ha: 125 g ai/ha
Method in brief: as §1

[4] = test system: corn (Zea mays); assay: Test D pre-/postemergence plant response; settings: Zea mays; for Corn plant response rating (crop injury, 0 = no effect, 100 = complete kill) at 62 g/ha: 62 g ai/ha
Method in brief: as §1

[5] = test system: yellow nutsedge (Cyperus esculentus); assay: Test D pre-/postemergence plant response; settings: Cyperus; for pest or weed control at 31 g/ha: 31 g ai/ha; for pest or weed control at 62 g/ha: 62 g ai/ha; for pest or weed control at 125 g/ha: 125 g ai/ha
Method in brief: as §1

[6] = test system: ragweed (common ragweed, Ambrosia elatior); assay: Test B pre-/postemergence plant response
Method in brief: (§2)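 Steps: plant seeds in loam soil–sand mix; spray soil preemergence, and in parallel spray 2–10 cm one- to two-leaf plants postemergence; hold ~10 days in greenhouse; visually rate injury against untreated controls (0 = no effect, 100 = complete control).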

[7] = test system: kochia (Kochia scoparia); assay: Test B pre-/postemergence plant response
Method in brief: as §2

[8] = test system: Italian ryegrass (Lolium multiflorum); assay: Test B pre-/postemergence plant response
Method in brief: as §2

[9] = post-emergence, Postemergence, scale 0 to 100 (0 no effect, 100 complete control), read-out: Barnyardgrass plant response rating
[10] = post-emergence, Postemergence, scale 0 to 100, 0 no effect, 100 complete control, read-out: Plant response rating, Barnyardgrass
[11] = pre-emergence, Preemergence, scale 0 to 100 (0 no effect, 100 complete control), read-out: Plant response rating, Barnyardgrass
[12] = post-emergence, Postemergence, scale 0 to 100, 0 no effect, 100 complete control, read-out: Plant response rating, Ryegrass, Italian
[13] = pre-emergence, Preemergence, scale 0 to 100 (0 no effect, 100 complete control), read-out: Plant response rating, Ryegrass, Italian
[14] = post-emergence, Postemergence, scale 0 to 100, 0 no effect, 100 complete control, read-out: Plant response rating, Nutsedge, Yellow
[15] = pre-emergence, Preemergence, scale 0 to 100 (0 no effect, 100 complete control), read-out: Plant response rating, Nutsedge, Yellow
[16] = 125 g ai/ha, postemergence, 0 to 100 scale, 0 no effect, 100 complete control
[17] = Postemergence, 500 g ai/ha, 0 to 100 scale (0 no effect, 100 complete control)
[18] = Preemergence, 125 g ai/ha, 0 to 100 scale (0 no effect, 100 complete control)
[19] = Preemergence, 500 g ai/ha, 0 to 100 scale where 0 is no effect and 100 is complete control

Fc1cccc(Oc2ncc(Cl)cn2)c1-c1cc(C(F)(F)F)on1 [Compound 168, 5-chloro-2-[2-[5-(trifluoromethyl)-3-isoxazolyl]-3-fluorophenoxy]pyrimidine]
pest or weed control at 125 g/ha ([1]; post-emergence, Postemergence, scale 0 to 100, 0 no effect, 100 complete control, read-out: Plant response rating, Foxtail, Giant): 60%
pest or weed control at 125 g/ha ([1]; pre-emergence, Preemergence, read-out: Plant response rating (scale 0 to 100), Foxtail, Giant): 100%
pest or weed control at 16 g/ha ([1]; pre-emergence, Preemergence, 16 g ai/ha, scale 0 to 100 (0 no effect, 100 complete control), read-out: Plant response rating, Foxtail, Giant): 100%
pest or weed control at 31 g/ha ([1]; pre-emergence, Preemergence, 31 g ai/ha, scale 0 to 100 (0 no effect, 100 complete control), read-out: Plant response rating, Foxtail, Giant): 100%
pest or weed control at 62 g/ha ([1]; pre-emergence, Preemergence, 62 g ai/ha, scale 0 to 100 (0 no effect, 100 complete control), read-out: Plant response rating, Foxtail, Giant): 100%
pest or weed control at 16 g/ha [2, 9]: 5%
pest or weed control at 31 g/ha [2, 9]: 5%
pest or weed control at 62 g/ha [2, 10]: 10%
pest or weed control at 125 g/ha [2, 10]: 75%
pest or weed control at 125 g/ha ([2]; pre-emergence, Preemergence, read-out: Plant response rating (scale 0 to 100), Barnyardgrass): 100%
pest or weed control at 16 g/ha [2, 11]: 35%
pest or weed control at 31 g/ha [2, 11]: 75%
pest or weed control at 62 g/ha [2, 11]: 100%
pest or weed control at 31 g/ha ([3]; post-emergence, Postemergence, scale 0 to 100 (0 no effect, 100 complete control), read-out: Ryegrass, Italian plant response rating): 5%
pest or weed control at 62 g/ha [3, 12]: 5%
pest or weed control at 125 g/ha [3, 12]: 15%
pest or weed control at 125 g/ha ([3]; pre-emergence, Preemergence, read-out: Plant response rating (scale 0 to 100), Ryegrass, Italian): 95%
pest or weed control at 16 g/ha ([3]; pre-emergence, Preemergence, 16 g ai/ha, scale 0 to 100 (0 no effect, 100 complete control), read-out: Plant response rating, Ryegrass, Italian): 70%
pest or weed control at 31 g/ha [3, 13]: 95%
pest or weed control at 62 g/ha [3, 13]: 95%
plant injury at 16 g/ha ([4]; post-emergence, Postemergence, 16 g ai/ha, scale 0 to 100 (0 no effect, 100 complete control), read-out: Corn plant response rating): 5%
plant injury at 31 g/ha ([4]; post-emergence, Postemergence, 31 g ai/ha, scale 0 to 100 (0 no effect, 100 complete control), read-out: Corn plant response rating): 5%
Corn plant response rating (crop injury, 0 = no effect, 100 = complete kill) at 62 g/ha ([4]; post-emergence, Postemergence, scale 0 to 100, 0 no effect, 100 complete control): 10%
Corn plant response rating (crop injury, 0 = no effect, 100 = complete kill) at 125 g/ha ([4]; post-emergence, Postemergence, 125 g ai/ha, scale 0 to 100, 0 no effect, 100 complete control): 20%
plant injury at 125 g/ha ([4]; pre-emergence, Preemergence, 125 g ai/ha, read-out: Plant response rating (scale 0 to 100), Corn): 55%
Corn plant response rating (crop injury, 0 = no effect, 100 = complete kill) at 16 g/ha ([4]; pre-emergence, Preemergence, 16 g ai/ha, scale 0 to 100 (0 no effect, 100 complete control)): 0%
Corn plant response rating (crop injury, 0 = no effect, 100 = complete kill) at 31 g/ha ([4]; pre-emergence, Preemergence, 31 g ai/ha, scale 0 to 100 (0 no effect, 100 complete control)): 15%
Corn plant response rating (crop injury, 0 = no effect, 100 = complete kill) at 62 g/ha ([4]; pre-emergence, Preemergence, scale 0 to 100 (0 no effect, 100 complete control)): 25%
pest or weed control at 31 g/ha ([5]; post-emergence, Postemergence, scale 0 to 100 (0 no effect, 100 complete control), read-out: Nutsedge, Yellow plant response rating): 5%
pest or weed control at 62 g/ha [5, 14]: 10%
pest or weed control at 125 g/ha [5, 14]: 15%
pest or weed control at 125 g/ha ([5]; pre-emergence, Preemergence, read-out: Plant response rating (scale 0 to 100), Nutsedge, Yellow): 45%
pest or weed control at 16 g/ha ([5]; pre-emergence, Preemergence, 16 g ai/ha, scale 0 to 100 (0 no effect, 100 complete control), read-out: Plant response rating, Nutsedge, Yellow): 5%
pest or weed control at 31 g/ha [5, 15]: 5%
pest or weed control at 62 g/ha [5, 15]: 15%
Plant response rating, Ragweed [6, 16]: 90
Plant response rating, Ragweed [6, 17]: 90
Ragweed plant response rating [6, 18]: 70
Plant response rating, Ragweed [6, 19]: 80
Plant response rating, Kochia [7, 16]: 90
Plant response rating, Kochia [7, 17]: 90
Kochia plant response rating [7, 18]: 100
Plant response rating, Kochia [7, 19]: 100
Plant response rating, Ryegrass, Italian [8, 16]: 90
Plant response rating, Ryegrass, Italian [8, 17]: 90
Ryegrass, Italian plant response rating [8, 18]: 80
Plant response rating, Ryegrass, Italian [8, 19]: 100

— patent US10131652B2, “Pyrimidinyloxy benzene derivatives as herbicides” (E. I. DU PONT DE NEMOURS AND COMPANY, priority 2014, dated 2018)
